How the values were obtained:
re-plated PDAC2 spheres = experiment: Acridine orange lysosomal integrity assay; assay type: cell-based, human
Method: Cells were analyzed with a 4-laser Attune NxT Acoustic Cytometer (ThermoFisher Scientific). […] Autofluorescent cells were excited with blue laser 488nm and selected as the intersection with the filters 530/40 and 580/30 as previously described. For lysosomes quantification, Acridine Orange (AO) (A1301, Thermo Fisher Scientific, Waltham, MA, USA) or Lysotracker Deep Red (DR) (L12492, Molecular probes, Life Technologies, Waltham, MA, USA) were used. […] Bafilomycin A1 (100 nM, Calbiochem, San Diego, CA, USA) was included as a positive control for lysosome disruption. For Annexin V staining, floating and attached cells were pooled and resuspended in 1× AnnexinV staining buffer containing AnnexinV-APC diluted 1:20 (Biotium, Freemont, CA, USA) and incubated for 20 min at room temperature prior to flow cytometric analysis. For all assays, DAPI was used to mark and exclude dead cells, and data were analyzed using the software FlowJo v9.3 (Tree Star Inc., Ashland, OR, USA).
Re-plated spheres were loaded with 1 µg/mL acridine orange (A1301, Thermo Fisher Scientific) for 15 min then washed 3 times with PBS. […]

ABL1(E255K)-P = target: T1, ABL1(E255K)-P (Homo sapiens, UniProt P00519, E255K); experiment: KINOMEscan; assay type: binding; conditions: read-out: % Ctrl
T1 construct: purchased DiscoveRx KINOMEscan

PDPK1 = target: T2, PDPK1 (Homo sapiens, UniProt O15530); experiment: KINOMEscan; assay type: binding; conditions: read-out: % Ctrl
T2 construct: purchased DiscoveRx KINOMEscan

ABL1(H396P)-P = target: T3, ABL1(H396P)-P (Homo sapiens, UniProt P00519, H396P); experiment: KINOMEscan; assay type: binding; conditions: read-out: % Ctrl
T3 construct: purchased DiscoveRx KINOMEscan

PIK3CA(I800L) = target: T4, PIK3CA(I800L) (Homo sapiens, UniProt P42336, I800L); experiment: KINOMEscan; assay type: binding; conditions: read-out: % Ctrl
T4 construct: purchased DiscoveRx KINOMEscan

PIKFYVE = target: T5, PIKFYVE (Homo sapiens, UniProt Q9Y2I7); experiment: KINOMEscan; assay type: binding; conditions: read-out: % Ctrl
T5 construct: purchased DiscoveRx KINOMEscan

PIP5K1C = target: T6, PIP5K1C (Homo sapiens, UniProt O60331); experiment: KINOMEscan; assay type: binding; conditions: read-out: % Ctrl
T6 construct: purchased DiscoveRx KINOMEscan

PKNB(M.tuberculosis) = target: T7, PKNB(M.tuberculosis) (Mycobacterium tuberculosis, UniProt P9WI81); experiment: KINOMEscan; assay type: binding; conditions: read-out: % Ctrl
T7 construct: purchased DiscoveRx KINOMEscan

PLK3 = target: T8, PLK3 (Homo sapiens, UniProt Q9H4B4); experiment: KINOMEscan; assay type: binding; conditions: read-out: % Ctrl
T8 construct: purchased DiscoveRx KINOMEscan

PLK4 = target: T9, PLK4 (Homo sapiens, UniProt O00444); experiment: KINOMEscan; assay type: binding; conditions: read-out: % Ctrl
T9 construct: purchased DiscoveRx KINOMEscan

PRKCH = target: T10, PRKCH (Homo sapiens, UniProt P24723); experiment: KINOMEscan; assay type: binding; conditions: read-out: % Ctrl
T10 construct: purchased DiscoveRx KINOMEscan

PRKCI = target: T11, PRKCI (Homo sapiens, UniProt P41743); experiment: KINOMEscan; assay type: binding; conditions: read-out: % Ctrl
T11 construct: purchased DiscoveRx KINOMEscan

PRKG2 = target: T12, PRKG2 (Homo sapiens, UniProt Q13237); experiment: KINOMEscan; assay type: binding; conditions: read-out: % Ctrl
T12 construct: purchased DiscoveRx KINOMEscan

JNK2 = target: T13, JNK2 (Homo sapiens, UniProt P45984); experiment: KINOMEscan; assay type: binding; conditions: read-out: % Ctrl
T13 construct: purchased DiscoveRx KINOMEscan

CAMK1G = target: T14, CAMK1G (Homo sapiens, UniProt Q96NX5); experiment: KINOMEscan; assay type: binding; conditions: read-out: % Ctrl
T14 construct: purchased DiscoveRx KINOMEscan

KIT(V559D,V654A) = target: T15, KIT(V559D,V654A) (Homo sapiens, UniProt P10721, V559D/V654A); experiment: KINOMEscan; assay type: binding; conditions: read-out: % Ctrl
T15 construct: purchased DiscoveRx KINOMEscan

LATS1 = target: T16, LATS1 (Homo sapiens, UniProt O95835); experiment: KINOMEscan; assay type: binding; conditions: read-out: % Ctrl
T16 construct: purchased DiscoveRx KINOMEscan

LATS2 = target: T17, LATS2 (Homo sapiens, UniProt Q9NRM7); experiment: KINOMEscan; assay type: binding; conditions: read-out: % Ctrl
T17 construct: purchased DiscoveRx KINOMEscan

CDK11 = target: T18, CDK11 (Homo sapiens, UniProt Q9BWU1); experiment: KINOMEscan; assay type: binding; conditions: read-out: % Ctrl
T18 construct: purchased DiscoveRx KINOMEscan

LZK = target: T19, LZK (Homo sapiens, UniProt O43283); experiment: KINOMEscan; assay type: binding; conditions: read-out: % Ctrl
T19 construct: purchased DiscoveRx KINOMEscan

CDKL1 = target: T20, CDKL1 (Homo sapiens, UniProt Q00532); experiment: KINOMEscan; assay type: binding; conditions: read-out: % Ctrl
T20 construct: purchased DiscoveRx KINOMEscan

MARK1 = target: T21, MARK1 (Homo sapiens, UniProt Q9P0L2); experiment: KINOMEscan; assay type: binding; conditions: read-out: % Ctrl
T21 construct: purchased DiscoveRx KINOMEscan

MAST1 = target: T22, MAST1 (Homo sapiens, UniProt Q9Y2H9); experiment: KINOMEscan; assay type: binding; conditions: read-out: % Ctrl
T22 construct: purchased DiscoveRx KINOMEscan

DCAMKL2 = target: T23, DCAMKL2 (Homo sapiens, UniProt Q8N568); experiment: KINOMEscan; assay type: binding; conditions: read-out: % Ctrl
T23 construct: purchased DiscoveRx KINOMEscan

TAK1 = target: T24, TAK1 (Homo sapiens, UniProt O43318); experiment: KINOMEscan; assay type: binding; conditions: read-out: % Ctrl
T24 construct: purchased DiscoveRx KINOMEscan

MLK1 = target: T25, MLK1 (Homo sapiens, UniProt P80192); experiment: KINOMEscan; assay type: binding; conditions: read-out: % Ctrl
T25 construct: purchased DiscoveRx KINOMEscan

MRCKA = target: T26, MRCKA (Homo sapiens, UniProt Q5VT25); experiment: KINOMEscan; assay type: binding; conditions: read-out: % Ctrl
T26 construct: purchased DiscoveRx KINOMEscan

DYRK1A = target: T27, DYRK1A (Homo sapiens, UniProt Q13627); experiment: KINOMEscan; assay type: binding; conditions: read-out: % Ctrl
T27 construct: purchased DiscoveRx KINOMEscan

MST1 = target: T28, MST1 (Homo sapiens, UniProt Q13043); experiment: KINOMEscan; assay type: binding; conditions: read-out: % Ctrl
T28 construct: purchased DiscoveRx KINOMEscan

EGFR = target: T29, EGFR (Homo sapiens, UniProt P00533); experiment: KINOMEscan; assay type: binding; conditions: read-out: % Ctrl
T29 construct: purchased DiscoveRx KINOMEscan

TNIK = target: T30, TNIK (Homo sapiens, UniProt Q9UKE5); experiment: KINOMEscan; assay type: binding; conditions: read-out: % Ctrl
T30 construct: purchased DiscoveRx KINOMEscan

TNK2 = target: T31, TNK2 (Homo sapiens, UniProt Q07912); experiment: KINOMEscan; assay type: binding; conditions: read-out: % Ctrl
T31 construct: purchased DiscoveRx KINOMEscan

NEK10 = target: T32, NEK10 (Homo sapiens, UniProt Q6ZWH5); experiment: KINOMEscan; assay type: binding; conditions: read-out: % Ctrl
T32 construct: purchased DiscoveRx KINOMEscan

NEK6 = target: T33, NEK6 (Homo sapiens, UniProt Q9HC98); experiment: KINOMEscan; assay type: binding; conditions: read-out: % Ctrl
T33 construct: purchased DiscoveRx KINOMEscan

p38-delta = target: T34, p38-delta (Homo sapiens, UniProt O15264); experiment: KINOMEscan; assay type: binding; conditions: read-out: % Ctrl
T34 construct: purchased DiscoveRx KINOMEscan

ZAK = target: T35, ZAK (Homo sapiens, UniProt Q9NYL2); experiment: KINOMEscan; assay type: binding; conditions: read-out: % Ctrl
T35 construct: purchased DiscoveRx KINOMEscan

PCTK2 = target: T36, PCTK2 (Homo sapiens, UniProt Q00537); experiment: KINOMEscan; assay type: binding; conditions: read-out: % Ctrl
T36 construct: purchased DiscoveRx KINOMEscan

T17 sequence (Q9NRM7 whole entry): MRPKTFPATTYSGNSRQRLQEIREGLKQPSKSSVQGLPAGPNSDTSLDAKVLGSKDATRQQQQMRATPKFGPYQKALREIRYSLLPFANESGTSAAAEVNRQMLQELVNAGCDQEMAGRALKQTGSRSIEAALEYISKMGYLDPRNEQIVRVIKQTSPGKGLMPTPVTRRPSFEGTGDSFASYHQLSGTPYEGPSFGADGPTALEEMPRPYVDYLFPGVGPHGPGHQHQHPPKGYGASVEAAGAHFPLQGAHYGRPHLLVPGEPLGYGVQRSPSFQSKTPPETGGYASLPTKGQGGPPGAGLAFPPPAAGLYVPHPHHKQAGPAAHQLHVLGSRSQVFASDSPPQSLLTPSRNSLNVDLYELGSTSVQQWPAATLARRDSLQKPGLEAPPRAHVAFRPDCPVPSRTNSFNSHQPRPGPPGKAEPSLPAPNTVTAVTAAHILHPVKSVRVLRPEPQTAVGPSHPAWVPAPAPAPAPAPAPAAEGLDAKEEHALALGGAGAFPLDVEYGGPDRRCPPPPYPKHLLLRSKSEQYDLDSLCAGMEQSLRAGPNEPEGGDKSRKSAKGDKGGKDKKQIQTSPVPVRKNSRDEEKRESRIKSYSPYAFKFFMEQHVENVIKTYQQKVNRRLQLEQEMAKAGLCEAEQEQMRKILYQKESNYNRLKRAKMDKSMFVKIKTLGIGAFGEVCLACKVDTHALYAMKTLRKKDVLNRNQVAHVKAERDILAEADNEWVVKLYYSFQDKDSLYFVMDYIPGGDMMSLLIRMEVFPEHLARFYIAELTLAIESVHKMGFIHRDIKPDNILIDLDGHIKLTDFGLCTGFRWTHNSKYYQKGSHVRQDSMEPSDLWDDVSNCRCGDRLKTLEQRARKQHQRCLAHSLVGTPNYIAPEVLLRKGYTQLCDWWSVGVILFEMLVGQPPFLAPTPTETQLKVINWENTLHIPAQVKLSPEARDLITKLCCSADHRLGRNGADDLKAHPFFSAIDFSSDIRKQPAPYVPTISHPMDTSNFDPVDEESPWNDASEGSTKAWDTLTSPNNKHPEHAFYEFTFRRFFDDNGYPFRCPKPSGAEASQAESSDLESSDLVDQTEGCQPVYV
T10 sequence (P24723 whole entry): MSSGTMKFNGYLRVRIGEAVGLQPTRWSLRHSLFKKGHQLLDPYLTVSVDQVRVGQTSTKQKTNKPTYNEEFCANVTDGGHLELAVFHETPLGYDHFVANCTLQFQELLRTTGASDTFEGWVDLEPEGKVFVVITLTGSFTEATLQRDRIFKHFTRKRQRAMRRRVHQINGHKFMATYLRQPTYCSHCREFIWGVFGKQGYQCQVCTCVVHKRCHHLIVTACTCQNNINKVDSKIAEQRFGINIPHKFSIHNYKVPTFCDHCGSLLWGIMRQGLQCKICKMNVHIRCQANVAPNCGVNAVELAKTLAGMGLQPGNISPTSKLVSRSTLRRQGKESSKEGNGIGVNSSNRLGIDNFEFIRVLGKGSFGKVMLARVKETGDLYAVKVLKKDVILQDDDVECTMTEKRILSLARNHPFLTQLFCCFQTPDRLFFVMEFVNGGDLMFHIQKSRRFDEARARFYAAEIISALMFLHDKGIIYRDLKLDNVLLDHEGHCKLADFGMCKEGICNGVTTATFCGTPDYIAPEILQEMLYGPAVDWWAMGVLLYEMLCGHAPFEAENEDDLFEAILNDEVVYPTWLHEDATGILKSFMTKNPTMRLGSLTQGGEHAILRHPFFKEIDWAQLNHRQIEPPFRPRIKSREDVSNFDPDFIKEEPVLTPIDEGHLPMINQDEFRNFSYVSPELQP
T31 sequence (Q07912 whole entry): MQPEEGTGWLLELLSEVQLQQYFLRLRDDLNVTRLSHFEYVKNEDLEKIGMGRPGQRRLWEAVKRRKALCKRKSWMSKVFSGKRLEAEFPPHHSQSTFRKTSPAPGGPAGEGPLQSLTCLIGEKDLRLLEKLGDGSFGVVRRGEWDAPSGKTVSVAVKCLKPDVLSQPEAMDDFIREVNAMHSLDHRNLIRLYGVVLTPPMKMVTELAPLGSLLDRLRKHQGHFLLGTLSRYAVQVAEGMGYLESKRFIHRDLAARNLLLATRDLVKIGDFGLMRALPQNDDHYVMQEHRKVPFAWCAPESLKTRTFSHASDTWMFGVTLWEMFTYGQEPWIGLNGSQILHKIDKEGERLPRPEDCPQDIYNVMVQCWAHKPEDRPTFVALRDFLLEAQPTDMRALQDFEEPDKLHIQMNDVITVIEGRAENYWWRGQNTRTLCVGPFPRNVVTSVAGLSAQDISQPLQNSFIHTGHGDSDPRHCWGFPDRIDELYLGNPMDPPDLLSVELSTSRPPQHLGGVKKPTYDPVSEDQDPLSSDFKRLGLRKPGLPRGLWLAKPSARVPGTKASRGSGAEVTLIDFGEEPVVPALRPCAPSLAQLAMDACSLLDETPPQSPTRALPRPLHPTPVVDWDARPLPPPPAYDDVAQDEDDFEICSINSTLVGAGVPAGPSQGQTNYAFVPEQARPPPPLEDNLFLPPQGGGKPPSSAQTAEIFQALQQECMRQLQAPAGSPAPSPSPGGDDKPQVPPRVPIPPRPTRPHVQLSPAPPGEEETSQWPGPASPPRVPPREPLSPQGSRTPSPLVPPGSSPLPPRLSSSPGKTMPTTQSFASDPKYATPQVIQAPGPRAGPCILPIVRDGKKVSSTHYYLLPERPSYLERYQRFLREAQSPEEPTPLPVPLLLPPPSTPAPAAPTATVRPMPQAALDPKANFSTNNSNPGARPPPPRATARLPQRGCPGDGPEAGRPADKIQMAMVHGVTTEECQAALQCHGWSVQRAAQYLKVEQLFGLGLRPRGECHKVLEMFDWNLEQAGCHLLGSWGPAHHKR
T14 sequence (Q96NX5 whole entry): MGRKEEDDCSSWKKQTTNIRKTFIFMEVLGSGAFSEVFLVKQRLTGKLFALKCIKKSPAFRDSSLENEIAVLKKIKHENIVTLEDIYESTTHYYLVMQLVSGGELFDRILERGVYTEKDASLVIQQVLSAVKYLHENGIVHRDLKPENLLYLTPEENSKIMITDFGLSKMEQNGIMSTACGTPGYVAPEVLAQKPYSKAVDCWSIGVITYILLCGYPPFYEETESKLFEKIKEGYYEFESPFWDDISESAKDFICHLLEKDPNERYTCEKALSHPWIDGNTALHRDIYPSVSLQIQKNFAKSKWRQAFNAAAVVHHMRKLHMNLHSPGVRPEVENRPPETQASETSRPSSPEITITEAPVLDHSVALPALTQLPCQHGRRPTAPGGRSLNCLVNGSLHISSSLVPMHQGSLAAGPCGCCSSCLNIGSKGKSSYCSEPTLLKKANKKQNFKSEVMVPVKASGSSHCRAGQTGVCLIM
T32 sequence (Q6ZWH5 whole entry): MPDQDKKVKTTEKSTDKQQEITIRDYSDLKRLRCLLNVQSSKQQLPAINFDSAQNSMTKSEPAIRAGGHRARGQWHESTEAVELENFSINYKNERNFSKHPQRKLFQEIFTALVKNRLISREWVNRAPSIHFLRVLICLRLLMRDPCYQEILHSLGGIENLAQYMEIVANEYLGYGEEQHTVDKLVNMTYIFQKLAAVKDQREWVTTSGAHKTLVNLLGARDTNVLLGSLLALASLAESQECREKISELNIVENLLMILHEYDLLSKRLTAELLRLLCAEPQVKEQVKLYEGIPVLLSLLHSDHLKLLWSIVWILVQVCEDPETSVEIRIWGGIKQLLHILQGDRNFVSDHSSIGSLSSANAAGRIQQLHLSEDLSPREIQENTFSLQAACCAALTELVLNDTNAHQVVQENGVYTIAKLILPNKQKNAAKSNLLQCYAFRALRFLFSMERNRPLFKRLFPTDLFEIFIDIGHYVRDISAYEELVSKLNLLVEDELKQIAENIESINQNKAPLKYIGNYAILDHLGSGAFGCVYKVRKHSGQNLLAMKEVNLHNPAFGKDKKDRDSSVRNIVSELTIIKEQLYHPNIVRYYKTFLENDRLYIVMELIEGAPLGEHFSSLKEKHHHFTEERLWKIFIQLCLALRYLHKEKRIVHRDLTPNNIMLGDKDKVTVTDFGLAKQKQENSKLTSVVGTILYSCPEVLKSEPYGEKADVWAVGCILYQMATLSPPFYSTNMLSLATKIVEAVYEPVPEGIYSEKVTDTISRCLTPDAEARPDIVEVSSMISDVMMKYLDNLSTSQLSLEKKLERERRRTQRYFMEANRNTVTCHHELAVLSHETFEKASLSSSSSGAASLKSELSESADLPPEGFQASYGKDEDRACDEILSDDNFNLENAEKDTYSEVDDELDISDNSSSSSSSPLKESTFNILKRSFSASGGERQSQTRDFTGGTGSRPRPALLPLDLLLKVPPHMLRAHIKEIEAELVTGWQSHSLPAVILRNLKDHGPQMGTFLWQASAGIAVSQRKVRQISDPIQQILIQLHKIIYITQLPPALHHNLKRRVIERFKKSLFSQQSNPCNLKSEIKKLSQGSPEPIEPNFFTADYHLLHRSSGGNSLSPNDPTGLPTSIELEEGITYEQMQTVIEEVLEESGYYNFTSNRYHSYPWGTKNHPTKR
T33 sequence (Q9HC98 whole entry): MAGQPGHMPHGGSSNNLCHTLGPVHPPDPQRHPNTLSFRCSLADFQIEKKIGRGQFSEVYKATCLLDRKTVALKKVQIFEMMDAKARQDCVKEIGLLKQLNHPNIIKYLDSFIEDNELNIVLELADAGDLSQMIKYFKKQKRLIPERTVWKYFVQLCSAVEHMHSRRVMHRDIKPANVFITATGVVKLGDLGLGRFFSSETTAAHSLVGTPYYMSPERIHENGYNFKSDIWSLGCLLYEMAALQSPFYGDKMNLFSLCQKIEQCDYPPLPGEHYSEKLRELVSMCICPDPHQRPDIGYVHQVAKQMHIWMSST

CN1CCC(CNc2ccc3ncc(C(=O)Nc4cccc(OC(F)(F)F)c4)n3n2)CC1 [Cpd 2]
Acridine Orange staining (LMP), fluorescence microscopy (re-plated PDAC2 spheres; 5 µM, 2 h): greatly reduced lysosomal staining in the far-red channel
AO mean far-red fluorescence intensity (MFI), flow cytometry (re-plated PDAC2 spheres; 1.25, 2.5 or 5 µM, 6 h and 24 h): decreasing overall AO mean far-red fluorescence intensity
remaining binding at 1 µM (ABL1(E255K)-P): 85%
remaining binding at 1 µM (PDPK1): 100%
remaining binding at 1 µM (ABL1(H396P)-P): 100%
remaining binding at 1 µM (PIK3CA(I800L)): 81%
remaining binding at 1 µM (PIKFYVE): 45%
remaining binding at 1 µM (PIP5K1C): 74%
remaining binding at 1 µM (PKNB(M.tuberculosis)): 90%
remaining binding at 1 µM (PLK3): 97%
remaining binding at 1 µM (PLK4): 82%
remaining binding at 1 µM (PRKCH): 99%
remaining binding at 1 µM (PRKCI): 85%
remaining binding at 1 µM (PRKG2): 100%
remaining binding at 1 µM (JNK2): 99%
remaining binding at 1 µM (CAMK1G): 92%
remaining binding at 1 µM (KIT(V559D,V654A)): 91%
remaining binding at 1 µM (LATS1): 100%
remaining binding at 1 µM (LATS2): 99%
remaining binding at 1 µM (CDK11): 97%
remaining binding at 1 µM (LZK): 92%
remaining binding at 1 µM (CDKL1): 97%
remaining binding at 1 µM (MARK1): 100%
remaining binding at 1 µM (MAST1): 59%
remaining binding at 1 µM (DCAMKL2): 97%
remaining binding at 1 µM (TAK1): 70%
remaining binding at 1 µM (MLK1): 95%
remaining binding at 1 µM (MRCKA): 100%
remaining binding at 1 µM (DYRK1A): 100%
remaining binding at 1 µM (MST1): 100%
remaining binding at 1 µM (EGFR): 94%
remaining binding at 1 µM (TNIK): 81%
remaining binding at 1 µM (TNK2): 99%
remaining binding at 1 µM (NEK10): 85%
remaining binding at 1 µM (NEK6): 100%
remaining binding at 1 µM (p38-delta): 100%
remaining binding at 1 µM (ZAK): 96%
remaining binding at 1 µM (PCTK2): 100%

Source: publication PMC7407272, “Induction of Lysosome Membrane Permeabilization as a Therapeutic Strategy to Target Pancreatic Cancer Stem Cells” (Cancers, 2020)
